In patent US20230373929A1, “FUSED RING DIIMIDE DERIVATIVE, PREPARATION METHOD AND USE THEREOF” (XIANGBEI WELMAN PHARMACEUTICAL CO., LTD., priority 2020, published 2023):
Like-named read-outs stand apart in the source and are kept apart here.

Assays:
[1] = test system: human colon cancer cells HT-29; experiment: anti-proliferative activity against tumor cells, resazurin (Alamar blue) assay, HT-29; assay type: cell-based; settings: read-out: IC50 Grades of Inhibitory Effects of Compounds on Tumor Cells, HT-29
Experimental: (§1) Objective: To test the anti-proliferative activity of the compound of the present disclosure against various tumor cells.
(§2) Test cells: human colon cancer cells (HT-29, COLO 205), human lung cancer cells (NCI-H460, A549) and human leukemia cells (HL-60, U-937).
(§3) Test method: each tumor cell was tested separately. Cells were incubated in medium at […] for 24 hours before use. The cells growing in an exponential growth phase were harvested and treated with trypsin to prepare a cell suspension, the cell suspension was centrifuged, then the cell pellet was resuspended in a small amount of fresh medium as a cell stock. The cell stock was diluted to required cell concentrations.
(§4) The test was carried out on 96-well plates; blank control groups, cell control groups and compound treatment groups were set up. In the blank control groups, only 10% PBS was added to each well, while in the cell control groups and the compound treatment groups, 100 μL of cells at the above concentration were added to each well, and then each well was filled with 200 μL of 10% PBS. The plates were placed in an incubator overnight. In the compound treatment groups, 100 μL of each test compound at different dilution concentrations was added to each well, the dilution concentrations of the compounds are as shown in Table 2.
(§5) After the addition of the drug to each well was completed, the plates were cultured in an incubator for 96 hours, 22 μL of resazurin sodium solution (Alarm blue, SIGMA R7017) was added to each well. The plates were returned to the incubator for another 4 hours of incubation and then shaken for 10 seconds after being taken out. The fluorescence value of each well were recorded at 530/590 nm.
(§6) The above operations were repeated three times.
(§7) The IC50 value of each test compound was calculated by Prism7 software. IC50 was divided into different grades according to values, that is, SS: <1 μM; S: 1-5 μM; A: 5-10 μM; B: 11-20 μM; C: 21-50 μM; D: 51-100 μM; E: >100 μM.

[2] = test system: human leukemia cells HL-60; experiment: anti-proliferative activity against tumor cells, resazurin assay, HL-60; assay type: cell-based; settings: read-out: IC50 Grades of Inhibitory Effects of Compounds on Tumor Cells, HL-60
Experimental: as §1, §2, §3, §4, §5, §6, §7

[3] = test system: human lung cancer cells NCI-H460; experiment: anti-proliferative activity against tumor cells, resazurin assay, NCI-H460; assay type: cell-based; settings: read-out: IC50 Grades of Inhibitory Effects of Compounds on Tumor Cells, NCI-H460
Experimental: as §1, §2, §3, §4, §5, §6, §7

[4] = test system: human lung cancer cells A549; experiment: anti-proliferative activity against tumor cells, resazurin assay, A549; assay type: cell-based; settings: read-out: IC50 Grades of Inhibitory Effects of Compounds on Tumor Cells, A549
Experimental: as §1, §2, §3, §4, §5, §6, §7

[5] = test system: human colon cancer cells COLO 205; experiment: anti-proliferative activity against tumor cells, resazurin assay, COLO 205; assay type: cell-based; settings: read-out: IC50 Grades of Inhibitory Effects of Compounds on Tumor Cells, COLO205
Experimental: as §1, §2, §3, §4, §5, §6, §7

[6] = test system: human leukemia cells U-937; experiment: anti-proliferative activity against tumor cells, resazurin assay, U-937; assay type: cell-based; settings: read-out: IC50 Grades of Inhibitory Effects of Compounds on Tumor Cells, U-937
Experimental: as §1, §2, §3, §4, §5, §6, §7

colon cancer cells = experiment: anti-proliferative activity, colon cancer cells; assay type: cell-based, human; settings: versus similar compounds (Compound 1d, Compound 1)
Experimental: as §1, §2, §3
(§8) The test was carried out on 96-well plates; blank control groups, cell control groups and compound treatment groups were set up. In the blank control groups, only 10% PBS was added to each well, while in the cell control groups and the compound treatment groups, 100 μL of cells at the above concentration were added to each well, and then each well was filled with 200 μL of 10% PBS. […]
(§9) After the addition of the drug to each well was completed, the plates were cultured in an incubator for 96 hours, 22 μL of resazurin sodium solution (Alarm blue, SIGMA R7017) was added to each well. […] The fluorescence value of each well were recorded at 530/590 nm.
(§10) The IC50 value of each test compound was calculated by Prism7 software. […]

tumor cells = experiment: anti-proliferative activity, overall comparison over all tumor cells; assay type: cell-based, human; settings: all tested tumor cells, under the test condition of the present disclosure
Experimental: as §1, §2, §3, §8, §9, §10

[7] = Homo sapiens, HT-29, 96 hours culture, resazurin fluorescence 530/590 nm
[8] = Homo sapiens, HL-60, 96 hours culture, resazurin fluorescence 530/590 nm
[9] = Homo sapiens, NCI-H460, 96 hours culture, resazurin fluorescence 530/590 nm
[10] = Homo sapiens, A549, 96 hours culture, resazurin fluorescence 530/590 nm
[11] = Homo sapiens, COLO 205, COLO205, 96 hours culture, resazurin fluorescence 530/590 nm
[12] = Homo sapiens, U-937, 96 hours culture, resazurin fluorescence 530/590 nm

SMILES | IC50 ([1]; Homo sapiens, HT-29, 96 h) [µM] | IC50 ([2]; Homo sapiens, HL-60, 96 h) [µM] | IC50 ([3]; Homo sapiens, NCI-H460, 96 h) [µM] | IC50 ([4]; Homo sapiens, A549, 96 h) [µM] | IC50 ([5]; Homo sapiens, COLO 205, 96 h) [µM] | IC50 ([6]; Homo sapiens, U-937, 96 h) [µM] | IC50 [1, 7] [µM] | IC50 [2, 8] [µM] | IC50 [3, 9] [µM] | IC50 [4, 10] [µM] | IC50 [5, 11] [µM] | IC50 [6, 12] [µM] | further results
O=C(OCCOCCCCN1C(=O)c2cccc3cccc(c23)C1=O)N(CCl)CCl [Compound I-02] | – | – | – | – | – | – | – | – | – | – | – | – | IC50 ([1]; HT-29, 96 hours culture, resazurin fluorescence 530/590 nm): 5 to 10 µM; IC50 ([2]; HL-60, 96 hours culture, resazurin fluorescence 530/590 nm): 5 to 10 µM; IC50 ([3]; NCI-H460, 96 hours culture, resazurin fluorescence 530/590 nm): 5 to 10 µM; IC50 ([4]; A549, 96 hours culture, resazurin fluorescence 530/590 nm): 5 to 10 µM; IC50 ([5]; COLO205, 96 hours culture, resazurin fluorescence 530/590 nm): 5 to 10 µM; IC50 ([6]; U-937, 96 hours culture, resazurin fluorescence 530/590 nm): 5 to 10 µM
O=NN(CCCl)C(=O)NCNCCN1C(=O)c2cccc3cc([N+](=O)[O-])cc(c23)C1=O [Compound I-03] | 1 to 5 | 1 to 5 | 5 to 10 | 1 to 5 | < 1 | 5 to 10 | – | – | – | – | – | – | activity relative to that of similar compounds (colon cancer cells): 50 times
CONC(=O)NCCN(CCCCN1C(=O)c2cccc3c2c(cc2ccoc23)C1=O)OC [Compound I-20] | – | – | – | – | – | – | 5 to 10 | 5 to 10 | 5 to 10 | 1 to 5 | 5 to 10 | 5 to 10 | –
CN(C)CCN1C(=O)c2cccc3cc(N)cc(c23)C1=O [Amonafide, reference compound] | – | – | – | – | – | – | 11 to 20 | 5 to 10 | 11 to 20 | 1 to 5 | 5 to 10 | 11 to 20 | –
COc1ccc2cc3c(cc2c1)C(=O)N(COCCN(OC)C(=O)N(C)C)C3=O [Compound I-08] | – | – | – | – | – | – | 11 to 20 | 5 to 10 | 5 to 10 | 5 to 10 | 5 to 10 | 5 to 10 | –
CN(C)C(=O)NCCN(CCCN1C(=O)c2cccc3cc4ccccc4c(c23)C1=O)[N+](=O)[O-] [Compound I-10] | – | – | – | – | – | – | 5 to 10 | 1 to 5 | 1 to 5 | 5 to 10 | 1 to 5 | 5 to 10 | –
O=NN(CCCl)C(=O)NCCCCN1C(=O)c2cccc3cccc(c23)C1=O [Compound 1d, reference compound] | 21 to 50 | 21 to 50 | 51 to 100 | 21 to 50 | 21 to 50 | 11 to 20 | – | – | – | – | – | – | overall anti-tumor activity, comparison in words (tumor cells): inferior to that of Amonafide
CCSC(=O)OCCCCOCN1C(=O)c2cccc3c(C)c4ccccc4c(c23)C1=O [Compound I-12] | – | – | – | – | – | – | 5 to 10 | 11 to 20 | 5 to 10 | 5 to 10 | 5 to 10 | 11 to 20 | –
O=NN(CCCl)C(=O)NCCN1C(=O)c2cccc3cc([N+](=O)[O-])cc(c23)C1=O [Compound 1, reference compound] | 21 to 50 | 11 to 20 | 11 to 20 | 5 to 10 | 21 to 50 | 21 to 50 | – | – | – | – | – | – | overall anti-tumor activity, comparison in words (tumor cells): inferior to that of Amonafide
CN(N=O)C(=O)NCCCCCCNCN1C(=O)c2cccc3c2c(cc2ccc(C#N)cc23)C1=O [Compound I-17] | – | – | – | – | – | – | 1 to 5 | 5 to 10 | 1 to 5 | 1 to 5 | 5 to 10 | 1 to 5 | –
CON(C)C(=O)N(C)CCCCNCCN1C(=O)c2cccc3c(N(C)C)ccc(c23)C1=O [Compound I-05] | – | – | – | – | – | – | 1 to 5 | 5 to 10 | 5 to 10 | 5 to 10 | 1 to 5 | 5 to 10 | –
O=NN(CCCl)C(=O)NCCNCCCCN1C(=O)c2cccc3cccc(c23)C1=O [Compound I-04] | < 1 | 1 to 5 | 5 to 10 | 5 to 10 | 1 to 5 | 1 to 5 | – | – | – | – | – | – | activity relative to that of similar compounds (colon cancer cells): 50 times
CCN(C)C(=O)NCCN(CCN1C(=O)c2cccc3c2c(cc2ccccc23)C1=O)OC [Compound I-15] | – | – | – | – | – | – | 1 to 5 | 5 to 10 | 1 to 5 | 5 to 10 | 5 to 10 | 1 to 5 | –
CC(C)(C)OC(=O)N1CCN(CCCN2C(=O)c3ccc4c5cccc6c(Br)ccc(c7ccc(c3c47)C2=O)c65)CC1 [Compound I-18] | – | – | – | – | – | – | 5 to 10 | 5 to 10 | 5 to 10 | 5 to 10 | 11 to 20 | 11 to 20 | –
O=C(NCCNCCCCN1C(=O)c2cccc3cccc(c23)C1=O)N(CCl)CCl [Compound I-01] | 1 to 5 | 5 to 10 | 5 to 10 | 1 to 5 | 1 to 5 | 1 to 5 | – | – | – | – | – | – | –
